# Assay results reported in patent US20250114346A1, “COMBINATION THERAPY USING A KRAS G12D INHIBITOR AND PD-1 INHIBITOR OR PD-L1 INHIBITOR” (Incyte Corporation, priority 2023, published 2025).
# Where “and” joins values, the source holds several entries; their conditions need not be identical. Equal entries are not always repeated. Structures can show the parent of a compound that is named as a salt.
# What was measured:
# [1] = test system: pERK (Phospho/Total ERK1/2) in CT-26 Clone 299 tumors; assay: CT-26 Clone 299 pharmacodynamic model (pERK/total ERK in tumor lysates, MesoScale); type: in vivo, BALB/c-hPD1/hPDL1 mice
# Method: Female BALB/c-hPD1/hPDL1 mice (GemPharmatech, aged 8-10 weeks) were inoculated subcutaneously with 1.0×10^6 CT-26 Clone 299 cells suspended in phosphate buffered saline.
# Oral dose administration was continuous for 5 days and 2 doses of Retifanlimab was given. On day 5, plasma and tumor samples were collected 4 hour post oral dose and 24 hours post IP dose following CO2 asphyxiation. Blood was collected into ethylenediaminetetraacetic acid (450480 Greiner Bio-One) tubes. The plasma was analyzed for drug levels. Two tumor fragments per individual were collected and weighed into Omni Bead Ruptor tubes (19-628 Omni International) and flash frozen. One tumor piece was lysed at a 1:5 ratio with homogenization solution (water:acetonitrile:formic acid, 95:5:0.1, v:v:v) for drug concentration analysis. The second tumor piece was then lysed at a 1:5 ratio with lysis buffer (64KL1 FD, Cisbio) with added protease inhibitors (A32957 and A32965, Thermo Fisher) and Blocking Reagent (64KB1AAC, Cisbio) on a Bead Ruptor Elite homogenizer (19-042E, Omni International, Kennesaw, GA). Tumor lysates were spun at 10,000 revolutions per minute for 10 minutes at 4° C. The protein concentration was determined using the Pierce™ BCA Protein Assay method according to the manufacturer's protocol (23227 Thermo Fisher Scientific). The lysates were diluted with additional lysis buffer to a final concentration of 0.4 μg/μL. Samples were analyzed using the MesoScale Discovery Platform on the Phospho/Total ERK1/2 Whole Cell Lysate Kit (K15107D, MesoScale Discovery, Rockville, MD). The pERK levels were first normalized to total ERK for each sample and then to the average pERK/tERK ratio of the vehicle control group.
# CT-26 Clone 299 cells = assay: CT-26 Clone 299 syngeneic efficacy model; type: in vivo, BALB/c-hPD1/hPDL1 mice; conditions: for monotherapy-treated mice succumbed to tumor growth: after treatment cessation, by day 43, Compound 1 at 100 mg/kg
# Method: BALB/c-hPD1/hPDL1 mice (GemPharmatech, strain #T004025) express human PDCD1 and CD274 (which encode the PD-1 and PD-L1 proteins, respectively) from the respective murine loci for those genes.
# For survival (Kaplan-Meier) analysis: in the Compound 1 study, events were recorded when tumor volumes reached 1700 mm^3 or mice met criteria for humane endpoint (e.g. body weight loss, tumor ulceration, overall condition); in the Compound 3 study, events were recorded when tumor volumes reached 2000 mm^3, when mice met criteria for humane endpoint, or upon confirmed recurrence following a complete response (confirmed recurrence defined as a growing tumor […] following a complete response as defined above).
molecule,measurement,setting,value
"Cc1nc2c(F)c(-c3cccc(Cl)c3Cl)c(CCC#N)cc2c2c1cc([C@H]1C[C@H]3C[C@H]3N1C(=O)C1CC1)n2[C@H]1[C@H]2CN[C@@H]1C2 (atropisomer, axis not shown; (Ra)) [Compound 1, 3-((Ra)-1-((1R,4R,5S)-2-azabicyclo[2.1.1]hexan-5-yl)-2-((1R,3R,5R)-2-(cyclopropanecarbonyl)-2-azabicyclo[3.1.0]hexan-3-yl)-7-(2,3-dichlorophenyl)-6-fluoro-4-methyl-1H-pyrrolo[3,2-c]quinolin-8-yl)propanenitrile monohydrochloride dihydrate]","pERK/ERK Inhibition Relative to Vehicle Control (%, Mean)","[1]; 100 mg/kg Cmpd 1 QD, 4 Hr, monohydrochloride dihydrate",84% and 56% and 85% and 89%
"COC(=O)N1[C@@H]2C[C@@H]([C@@H](OC(F)F)C2)[C@@H]1c1cc2c(C)nc3c(F)c(-c4cccc(Cl)c4Cl)c(CCC#N)cc3c2n1[C@H]1[C@H]2CN[C@@H]1C2 (atropisomer, axis not shown; (Ra)) [Compound 3, Methyl (1R,3R,4R,5S)-3-((Ra)-1-((1R,4R,5S)-2-azabicyclo[2.1.1]hexan-5-yl)-8-(2-cyanoethyl)-7-(2,3-dichlorophenyl)-6-fluoro-4-methyl-1H-pyrrolo[3,2-c]quinolin-2-yl)-5-(difluoromethoxy)-2-azabicyclo[2.2.1]heptane-2-carboxylate]",TGI (tumor growth inhibition),"CT-26 Clone 299 cells; Compound 3 10 mg/kg BID PO monotherapy, day 34, vs vehicle (p=0.1127)",47%
same,TGI (tumor growth inhibition),"CT-26 Clone 299 cells; Compound 3 30 mg/kg BID PO monotherapy, day 34, vs vehicle (p=0.0411)",92%
"Cc1c(Nc2nc(C(F)F)nc3cc(CN4CC[C@@H](O)C4)cnc23)cccc1-c1cccc(-c2nc3cc(CN4CCC(C(=O)O)CC4)cc(C#N)c3o2)c1C [Compound 2, (R)-1-((7-Cyano-2-(3′-(2-(difluoromethyl)-7-((3-hydroxypyrrolidin-1-yl)methyl)pyrido[3,2-d]pyrimidin-4-ylamino)-2,2′-dimethylbiphenyl-3-yl)benzo[d]oxazol-5-yl)methyl)piperidine-4-carboxylic acid]",TGI (tumor growth inhibition),"CT-26 Clone 299 cells; Compound 2 25 mg/kg BID PO monotherapy, day 25",17%
same,tumor growth,"CT-26 Clone 299 cells; Compound 2 25 mg/kg BID monotherapy, Compound 3 study",did not meaningfully alter tumor growth
same,monotherapy-treated mice succumbed to tumor growth,CT-26 Clone 299 cells,100%
same,inhibition at 25 mg/kg,"[1]; Mus musculus, CT26, Compound 2 25 mg/kg BID, 5 days, 4-hour post dose",10%
retifanlimab: humanized IgG4 monoclonal antibody that binds to human PD-1 [reference compound],monotherapy-treated mice succumbed to tumor growth,CT-26 Clone 299 cells,90%
same,TGI (tumor growth inhibition),"CT-26 Clone 299 cells; retifanlimab 10 mg/kg BIW IP monotherapy, day 25, Compound 1 study",52%
same,TGI (tumor growth inhibition),"CT-26 Clone 299 cells; retifanlimab 10 mg/kg BIW monotherapy, day 34, Compound 3 study (p=0.0263)",74%
same,pERK inhibition,"[1]; retifanlimab 10 mg/kg BIW, 24 hours post second dose",18%
